Experimental data published in patent US7629310B2, “RhoB as a suppressor of cancer cell growth, cell transformation, and metastasis” (University of South Florida, priority 2000, dated 2009).

Experiments:
RhoB protein levels = assay: RhoB protein level by Western blotting in PANC-1 cells; format: cell-based, human; settings: treated 48 hours (FIG. 7E)
Experimental: H-Ras/3T3 cells were treated with (FIG. 7A) different concentrations of LY294002 for 48 hrs or (FIG. 7B) LY294002 (20 μM) for different time intervals. The cells were then lysed and analyzed for RhoB and RhoA protein levels by Western Blotting with anti-RhoB and anti-RhoA; the same filter was re-probed with antiβ-actin for loading control. NIH3T3 cells (FIG. 7C) were transiently transfected with various genes as indicated for 24 hours; and then treated with either DMSO vehicle or LY294002 or 5-FU alone or in combination for another 48 hours. The cells were analyzed for RhoB, RhoA, and β-actin protein levels as described above. […] The cells were analyzed for RhoB and RhoA protein levels by Western Blotting with anti-RhoB and anti-RhoA; the same filter was re-probed with anti-β-actin, anti-HA and anti-pan-Akt antibodies. PANC-1 cells (FIG. 7E) and A549 cells (FIG. 7F) were treated PD, LY or 5-FU as indicated for 48 hours; then analyzed for RhoB and RhoA protein levels by Western Blotting as described above.
Western Blot Analysis. […] Antigen-bound antibody was detected by enhanced chemiluminescence Western blotting kit ([…] […] BIOTECH), Piscataway, N.J.). β-actin was detected as an internal loading control.

RhoB promoter [1] = assay: RhoB promoter transcriptional activity (luciferase reporter) in human cancer cell lines A-549, Panc-1, C33A; format: cell-based; settings: for RhoB Promoter transcriptional activity (% inhibition): vs pcDNA3 control
Description: Gene Constructs and RhoB Promoter Transcriptional Activity Assay. Constitutively active H-Ras61L, K-RasV12, N-RasV12, and dominant negative […]-Ras were kind gifts from Dr. Channing Der (University of North Carolina) (Khosravi-Far, R. et al., Mol Cell Biol, 1995, 15:6443-53; Quilliam, L. A. et al., Mol Cell Biol, 1994, 14:1113-21). Wild-type RhoA and RhoB were subcloned into hemaglutinin (HA)-tagged pcDNA3 (INVITROGEN). The orientation and the sequences of these genes were confirmed by DNA sequencing facilities at the H. Lee Moffitt Cancer Center, Tampa, Fla. RhoB promoter construct pGEI was kindly provided by Dr Y. Monden (Banyu Tsukuba Research, Japan) (Nakamura et al., 1996). pCMV-β-galactosidase vector was purchased from INVITROGEN. The plasmid containing CA-, DN-PI3K, Mek and Akt were kindly provided by Dr. Julie Y. Djeu (H. Lee Moffitt Cancer and Research Institute, Tampa, Fla.) (Jiang, K. et al., Blood, 2003, 101:236-44). β-galactosidase activity and luciferase assay kits were purchased from PROMEGA Corporation, Madison, Wis. The serum response element (SRE) reporter was provided by Dr. Richard Jove, H. Lee Moffitt Cancer and Research Institute, Tampa, Fla. […] Richard Jove, Oncology program, H. Lee Moffitt Cancer and Research Institute, Tampa, Fla. […] Human EGFR, ErbB2 cDNA construct were kindly provided by Dr. Noreen Luetteke, H. Lee Moffitt Cancer and Research Institute, Tampa, Fla. (Luetteke, N. C. et al., Genes Dev, 1994, 8:399-413). DNA transfection was performed with the standard lipofectamine protocol (INVITROGEN). Briefly, cells were plated in 60-mm plates, pGEI plasmid was used at 2 μg per plate, whereas all the other plasmids were used at 0.1-1.0 μg per plate. After transfection the cells were grown for another 36-48 h. Cells were then washed twice with PBS and lyzed in Promega Passive Lysis Buffer. Aliquots of the lysates were then used to measure the luciferase and β-galactosidase activities. The luciferase values were first divided by β-galactosidase values. The RhoB promoter transcriptional activity was determined by dividing the luciferase/β-Gal values from oncogene-transfected cells by those from pcDNA3-transfected cells. […] All the samples were performed in triplicate and the averages of 3 independent experiments were reported here. Proteins that induce malignant transformation and those that suppress tumorigenesis most likely antagonize each other's functions. […] Du, W. et al., Mol Cell Biol, 1999, 19:1831-40; Du, W. and Prendergast, G. C., Cancer Res, 1999, 59:5492-6). An objective of the experiments described herein was to determine whether oncogenes that are prevalent in human cancers suppress RhoB expression, and whether RhoB antagonizes the ability of these oncogenes to induce malignant transformation. To this end, the effects of several oncogenes on RhoB promoter transcriptional activity were first evaluated. NIH3T3 cells and human cancer cell lines derived from lung (A-549), pancreatic (Panc-1) and cervical (C33A) tumors were transiently transfected with pcDNA3 empty vectors or pcDNA3 constructs containing various oncogenes along with full length RhoB promoter firefly luciferase reporter and SRE-renilla luciferase reporter as well as a β-gal reporter for controlling transfection efficiency as described in the Materials and Methods section.

RhoB promoter [2] = assay: RhoB promoter transcriptional activity in H-Ras/3T3 cells; format: cell-based; settings: treated 12 hours (FIG. 6B)
Description: The cell lysates were processed as in FIGS. 5A-5D. […] The cell lysates were processed as in FIGS. 5A-5D. […] The cell lysates were processed as in FIGS. 5A-5D. Gene Constructs and RhoB Promoter Transcriptional Activity Assay. Constitutively active H-Ras61L, K-RasV12, N-RasV12, and dominant negative […]-Ras were kind gifts from Dr. Channing Der (University of North Carolina) (Khosravi-Far, R. et al., Mol Cell Biol, 1995, 15:6443-53; Quilliam, L. A. et al., Mol Cell Biol, 1994, 14:1113-21). Wild-type RhoA and RhoB were subcloned into hemaglutinin (HA)-tagged pcDNA3 (INVITROGEN). The orientation and the sequences of these genes were confirmed by DNA sequencing facilities at the H. Lee Moffitt Cancer Center, Tampa, Fla. RhoB promoter construct pGEI was kindly provided by Dr Y. Monden (Banyu Tsukuba Research, Japan) (Nakamura et al., 1996). pCMV-β-galactosidase vector was purchased from INVITROGEN. The plasmid containing CA-, DN-PI3K, Mek and Akt were kindly provided by Dr. Julie Y. Djeu (H. Lee Moffitt Cancer and Research Institute, Tampa, Fla.) (Jiang, K. et al., Blood, 2003, 101:236-44). β-galactosidase activity and luciferase assay kits were purchased from PROMEGA Corporation, Madison, Wis. […] The RhoB promoter transcriptional activity was determined by dividing the luciferase/β-Gal values from oncogene-transfected cells by those from pcDNA3-transfected cells. […]

NIH3T3 cells = assay: 5-FU-induced apoptosis (Annexin V, flow cytometry) in NIH3T3 cells; format: cell-based; settings: NIH3T3, transfected 24 hours then 5-FU 48 hours (FIG. 10A); control 28-30%
Experimental: Apoptosis Assay. Cells were collected by trypsinization, washed in wash buffer and stained with Annexin V and 7-AAD according to manufacturer's recommendation (PharMingen, San Diego, Calif.). Data acquisition and analysis was performed by the Flow Cytometry Core Facility at the H. Lee Moffitt Cancer Center (Tampa, Fla.). All the samples were performed in duplicate and a representative of 3 independent experiments were reported here.

RhoB promoter [3] = assay: RhoB promoter transcriptional activity (luciferase reporter) in NIH3T3 cells; format: cell-based
Description: Gene Constructs and RhoB Promoter Transcriptional Activity Assay. Constitutively active H-Ras61L, K-RasV12, N-RasV12, and dominant negative […]-Ras were kind gifts from Dr. Channing Der (University of North Carolina) (Khosravi-Far, R. et al., Mol Cell Biol, 1995, 15:6443-53; Quilliam, L. A. et al., Mol Cell Biol, 1994, 14:1113-21). Wild-type RhoA and RhoB were subcloned into hemaglutinin (HA)-tagged pcDNA3 (INVITROGEN). The orientation and the sequences of these genes were confirmed by DNA sequencing facilities at the H. Lee Moffitt Cancer Center, Tampa, Fla. RhoB promoter construct pGEI was kindly provided by Dr Y. Monden (Banyu Tsukuba Research, Japan) (Nakamura et al., 1996). pCMV-β-galactosidase vector was purchased from INVITROGEN. The plasmid containing CA-, DN-PI3K, Mek and Akt were kindly provided by Dr. Julie Y. Djeu (H. Lee Moffitt Cancer and Research Institute, Tampa, Fla.) (Jiang, K. et al., Blood, 2003, 101:236-44). β-galactosidase activity and luciferase assay kits were purchased from PROMEGA Corporation, Madison, Wis. The serum response element (SRE) reporter was provided by Dr. Richard Jove, H. Lee Moffitt Cancer and Research Institute, Tampa, Fla. (Turkson, J. et al., Mol Cell Biol, 1999, 19:7519-28). […] Richard Jove, Oncology program, H. Lee Moffitt Cancer and Research Institute, Tampa, Fla. (Turkson, J. et al., Mol Cell Biol, 1999, 19:7519-28). […] (Luetteke, N. C. et al., Genes Dev, 1994, 8:399-413). DNA transfection was performed with the standard lipofectamine protocol (INVITROGEN). […] After transfection the cells were grown for another 36-48 h. Cells were then washed twice with PBS and lyzed in Promega Passive Lysis Buffer. Aliquots of the lysates were then used to measure the luciferase and β-galactosidase activities. The luciferase values were first divided by β-galactosidase values. The RhoB promoter transcriptional activity was determined by dividing the luciferase/β-Gal values from oncogene-transfected cells by those from pcDNA3-transfected cells. […] All the samples were performed in triplicate and the averages of 3 independent experiments were reported here.

COc1cccc(-c2cc(=O)c3ccccc3o2)c1N [PD98059]
induction of RhoB protein levels (RhoB protein levels): no induction

O=c1cc(N2CCOCC2)oc2c(-c3ccccc3)cccc12 [LY294002]
induction of RhoB protein levels (RhoB protein levels): 8 fold | 5-FU induction of RhoB promoter activity (RhoB promoter [1]; PANC-1 and A-549 cells expressing mutated K-Ras): sensitize these cells to 5-FU induction of RhoB promoter activity | induction of RhoB promoter activity (RhoB promoter [2]): 1.7 fold

Akt: Akt expression construct transfected into NIH3T3 cells
5-FU apoptotic rate after transfection (NIH3T3 cells): 17%

ErbB2: human ErbB2 cDNA construct
RhoB Promoter transcriptional activity (% inhibition) (RhoB promoter [1]; A549, transiently transfected 36 hrs): 74 ± 4.3% | RhoB Promoter transcriptional activity (% inhibition) (RhoB promoter [1]; C33A, transiently transfected 36 hrs): 69 ± 3.6% | RhoB Promoter transcriptional activity (% inhibition) (RhoB promoter [1]; PANC1, transiently transfected 36 hrs): 68 ± 4.1% | inhibition of RhoB promoter activity (RhoB promoter [3]; NIH3T3, in the presence of N17-H-Ras): 18% | RhoB Promoter transcriptional activity (% inhibition) (RhoB promoter [3]; NIH3T3, transiently transfected 36 hrs, vs pcDNA3 control): 79 ± 3.9%
